What was measured:
[1] = molecular target: Leucine-rich repeat serine/threonine-protein kinase 2 (Homo sapiens, UniProt Q5S007, G2019S); test: Inhibition of LRRK2 G2019S mutant in human HEK293 cells assessed as phosphorylation at Ser935; type: cell-based
[2] = molecular target: Leucine-rich repeat serine/threonine-protein kinase 2 (Homo sapiens, UniProt Q5S007); test: Inhibition of LRRK2 (unknown origin)
[3] = Inhibition of LRRK2 G2019S mutant-induced neuronal toxicity in rat cortical neurons
[4] = tested on: Brain; test: Druguptake in mouse brain at 1 mg/kg, iv; type: ADME, organism-based; settings: in vivo
[5] = Clearance in mouse at 1 mg/kg, iv; type: ADME, organism-based; settings: in vivo

Sequence of Leucine-rich repeat serine/threonine-protein kinase 2 (Homo sapiens, UniProt Q5S007) (Q5S007 whole entry): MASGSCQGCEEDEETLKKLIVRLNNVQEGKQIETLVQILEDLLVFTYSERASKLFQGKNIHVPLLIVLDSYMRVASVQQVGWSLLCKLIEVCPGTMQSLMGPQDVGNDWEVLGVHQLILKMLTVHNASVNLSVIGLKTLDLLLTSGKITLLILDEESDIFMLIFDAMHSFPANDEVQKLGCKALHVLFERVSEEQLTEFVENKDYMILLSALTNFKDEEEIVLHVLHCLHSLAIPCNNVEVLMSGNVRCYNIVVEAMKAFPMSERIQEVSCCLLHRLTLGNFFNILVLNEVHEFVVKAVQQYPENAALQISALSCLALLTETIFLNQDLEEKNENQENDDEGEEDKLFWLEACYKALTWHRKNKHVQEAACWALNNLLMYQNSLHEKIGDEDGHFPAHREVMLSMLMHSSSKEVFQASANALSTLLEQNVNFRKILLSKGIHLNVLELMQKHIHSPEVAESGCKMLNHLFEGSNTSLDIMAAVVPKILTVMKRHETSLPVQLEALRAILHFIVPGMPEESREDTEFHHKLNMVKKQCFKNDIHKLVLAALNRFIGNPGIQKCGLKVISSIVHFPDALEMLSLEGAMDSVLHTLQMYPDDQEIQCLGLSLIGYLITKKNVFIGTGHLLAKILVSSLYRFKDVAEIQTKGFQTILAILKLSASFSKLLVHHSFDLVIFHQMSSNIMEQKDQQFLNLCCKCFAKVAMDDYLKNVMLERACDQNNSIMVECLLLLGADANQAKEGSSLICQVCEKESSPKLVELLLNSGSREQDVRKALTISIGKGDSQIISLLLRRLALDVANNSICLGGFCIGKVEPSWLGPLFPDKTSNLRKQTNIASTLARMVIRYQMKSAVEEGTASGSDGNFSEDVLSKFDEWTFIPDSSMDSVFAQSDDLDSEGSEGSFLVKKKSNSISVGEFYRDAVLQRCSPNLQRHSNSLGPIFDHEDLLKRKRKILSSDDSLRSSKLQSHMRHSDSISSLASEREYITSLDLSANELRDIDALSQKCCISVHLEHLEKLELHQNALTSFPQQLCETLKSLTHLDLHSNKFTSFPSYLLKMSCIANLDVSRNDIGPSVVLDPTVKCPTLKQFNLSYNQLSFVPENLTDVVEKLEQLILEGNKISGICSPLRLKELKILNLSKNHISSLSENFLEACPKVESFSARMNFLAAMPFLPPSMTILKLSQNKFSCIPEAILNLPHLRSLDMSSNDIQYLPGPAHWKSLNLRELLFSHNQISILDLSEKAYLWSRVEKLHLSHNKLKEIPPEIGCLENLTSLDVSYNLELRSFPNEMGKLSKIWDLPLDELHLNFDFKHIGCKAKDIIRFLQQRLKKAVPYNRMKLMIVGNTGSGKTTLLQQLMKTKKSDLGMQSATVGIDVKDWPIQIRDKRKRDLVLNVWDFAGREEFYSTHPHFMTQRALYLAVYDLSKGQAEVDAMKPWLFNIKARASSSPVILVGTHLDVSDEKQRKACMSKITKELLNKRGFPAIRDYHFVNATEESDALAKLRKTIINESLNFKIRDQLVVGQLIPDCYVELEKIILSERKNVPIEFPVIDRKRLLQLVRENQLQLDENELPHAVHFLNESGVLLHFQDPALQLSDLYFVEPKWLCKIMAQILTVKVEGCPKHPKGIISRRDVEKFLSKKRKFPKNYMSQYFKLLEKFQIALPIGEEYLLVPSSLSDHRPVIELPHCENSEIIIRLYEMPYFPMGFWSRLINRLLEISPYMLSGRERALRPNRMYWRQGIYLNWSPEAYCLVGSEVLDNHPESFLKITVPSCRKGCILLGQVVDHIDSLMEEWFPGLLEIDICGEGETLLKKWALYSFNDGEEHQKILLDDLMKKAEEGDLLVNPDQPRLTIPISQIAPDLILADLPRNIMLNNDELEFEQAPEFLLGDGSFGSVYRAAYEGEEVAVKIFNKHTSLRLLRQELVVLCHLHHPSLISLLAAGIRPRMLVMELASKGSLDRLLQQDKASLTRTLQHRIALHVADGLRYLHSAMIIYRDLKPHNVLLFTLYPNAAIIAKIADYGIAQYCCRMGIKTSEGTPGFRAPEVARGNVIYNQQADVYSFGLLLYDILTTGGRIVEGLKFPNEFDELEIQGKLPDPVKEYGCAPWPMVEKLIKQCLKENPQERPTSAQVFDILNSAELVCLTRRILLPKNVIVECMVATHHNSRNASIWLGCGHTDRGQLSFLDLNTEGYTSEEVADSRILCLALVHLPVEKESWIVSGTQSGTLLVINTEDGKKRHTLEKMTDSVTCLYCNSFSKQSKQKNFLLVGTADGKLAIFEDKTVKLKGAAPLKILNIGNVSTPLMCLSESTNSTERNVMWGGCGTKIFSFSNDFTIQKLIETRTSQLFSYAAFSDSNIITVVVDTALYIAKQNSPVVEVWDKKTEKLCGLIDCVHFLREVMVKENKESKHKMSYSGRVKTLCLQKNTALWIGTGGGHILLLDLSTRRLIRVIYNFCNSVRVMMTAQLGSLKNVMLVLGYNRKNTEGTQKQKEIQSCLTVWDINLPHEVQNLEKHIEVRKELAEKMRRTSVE
Sequence of Leucine-rich repeat serine/threonine-protein kinase 2 (Homo sapiens, UniProt Q5S007, G2019S) (Q5S007 whole entry G2019S): as the sequence (Q5S007 whole entry) above, with G2019S counted along it

Compound | IC50 [1] | IC50 [2] | EC50 [3] | Drug uptake [4] | clearance [5]
CN1CCN(c2ccc(OCc3ccccc3)c(C(=O)Nc3cccnc3)c2)CC1 | 94 nM | 6 nM |  |  | 
COc1cc(C(=O)N2CCC(N3CCN(C)CC3)CC2)ccc1Nc1ncc2c(n1)N(C)c1ccccc1C(=O)N2C |  | 6 nM |  |  | 
COc1cc(N2CCOCC2)ccc1Nc1ncc(F)c(Nc2ccccc2NS(C)(=O)=O)n1 |  | 7 nM | 100 nM | 4% | 2.3 mL/min/kg

— ChEMBL document CHEMBL3603772, “Chemical Biology of Leucine-Rich Repeat Kinase 2 (LRRK2) Inhibitors” (J Med Chem, 2015)
